Test results reported in ChEMBL document CHEMBL1201862, “PubChem BioAssay data set” (2004).
Calls of active or inactive are those of the source.

Columns and labels:
[1] = biological target: T1, Acyl-homoserine lactone acylase PvdQ (Pseudomonas aeruginosa (strain LESB58), UniProt Q9I194); experiment: PvdQ acylase enzyme activity blockers – biochemical, fluorescence, plate reader and imaging, cherry-picks, dose response (AID 493231)
T1 sequence (Q9I194 whole entry): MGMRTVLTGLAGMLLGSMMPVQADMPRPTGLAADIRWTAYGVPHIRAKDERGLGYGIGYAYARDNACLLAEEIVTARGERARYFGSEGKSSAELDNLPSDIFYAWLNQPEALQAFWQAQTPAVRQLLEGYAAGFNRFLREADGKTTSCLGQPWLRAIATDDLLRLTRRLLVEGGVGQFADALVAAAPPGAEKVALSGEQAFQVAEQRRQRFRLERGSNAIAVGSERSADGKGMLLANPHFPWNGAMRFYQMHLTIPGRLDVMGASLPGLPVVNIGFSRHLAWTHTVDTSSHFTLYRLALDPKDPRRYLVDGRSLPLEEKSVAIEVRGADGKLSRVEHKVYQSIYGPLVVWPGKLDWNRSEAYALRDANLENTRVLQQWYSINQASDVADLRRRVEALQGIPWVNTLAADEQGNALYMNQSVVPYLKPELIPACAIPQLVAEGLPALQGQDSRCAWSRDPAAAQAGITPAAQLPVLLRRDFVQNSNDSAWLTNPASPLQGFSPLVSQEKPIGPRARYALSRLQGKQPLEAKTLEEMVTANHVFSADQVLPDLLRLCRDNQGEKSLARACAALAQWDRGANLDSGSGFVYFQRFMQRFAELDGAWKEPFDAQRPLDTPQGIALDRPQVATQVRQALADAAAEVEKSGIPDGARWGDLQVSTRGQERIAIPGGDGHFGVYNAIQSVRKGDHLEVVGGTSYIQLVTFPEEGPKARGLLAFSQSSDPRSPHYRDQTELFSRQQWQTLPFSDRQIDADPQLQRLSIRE

Ephrin type-A receptor 4 = Ephrin type-A receptor 4 (Mus musculus, UniProt Q03137); experiment: EphA4 ligand-binding antagonists – biochemical, colorimetric, mouse EphA4, primary screen (AID 689); type: functional
[2] = biological target: Photoreceptor-specific nuclear receptor (Homo sapiens, UniProt Q9Y5X4); type: functional;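 further: potency for compounds that break the NR2E3 corepressor complex and count as activators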
[3] = biological target: Eukaryotic translation initiation factor 4E (Mus musculus, UniProt P63073); experiment: blockers of eIF4G binding by eIF4E – biochemical, TR-FRET, dose response (AID 855); type: functional;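 further: potency for disrupting eIF4E binding to eIF4GI seen as loss of FRET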
[4] = biological target: Peroxisome proliferator-activated receptor gamma/Nuclear receptor corepressor 2 (Homo sapiens, UniProt P37231+Q9Y618); type: functional
[5] = HEK-293T cell viability reduction – luminescence, B-cell screen hits, cytotoxicity control for BCR NF-kB inhibitor project, dose response (AID 489021); type: functional, cell-based;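 further: HEK-293T cells carrying an NF-kB luciferase reporter; cells exposed to compound for about 14 hours before viability readout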
[6] = biological target: T2, Replicative DNA helicase DnaB (Mycobacterium tuberculosis, UniProt P9WMR3); experiment: DnaB intein splicing inhibitors, dose response, biochemical, cell-free fluorescence (AID 449749); type: functional
T2 sequence (P9WMR3 whole entry): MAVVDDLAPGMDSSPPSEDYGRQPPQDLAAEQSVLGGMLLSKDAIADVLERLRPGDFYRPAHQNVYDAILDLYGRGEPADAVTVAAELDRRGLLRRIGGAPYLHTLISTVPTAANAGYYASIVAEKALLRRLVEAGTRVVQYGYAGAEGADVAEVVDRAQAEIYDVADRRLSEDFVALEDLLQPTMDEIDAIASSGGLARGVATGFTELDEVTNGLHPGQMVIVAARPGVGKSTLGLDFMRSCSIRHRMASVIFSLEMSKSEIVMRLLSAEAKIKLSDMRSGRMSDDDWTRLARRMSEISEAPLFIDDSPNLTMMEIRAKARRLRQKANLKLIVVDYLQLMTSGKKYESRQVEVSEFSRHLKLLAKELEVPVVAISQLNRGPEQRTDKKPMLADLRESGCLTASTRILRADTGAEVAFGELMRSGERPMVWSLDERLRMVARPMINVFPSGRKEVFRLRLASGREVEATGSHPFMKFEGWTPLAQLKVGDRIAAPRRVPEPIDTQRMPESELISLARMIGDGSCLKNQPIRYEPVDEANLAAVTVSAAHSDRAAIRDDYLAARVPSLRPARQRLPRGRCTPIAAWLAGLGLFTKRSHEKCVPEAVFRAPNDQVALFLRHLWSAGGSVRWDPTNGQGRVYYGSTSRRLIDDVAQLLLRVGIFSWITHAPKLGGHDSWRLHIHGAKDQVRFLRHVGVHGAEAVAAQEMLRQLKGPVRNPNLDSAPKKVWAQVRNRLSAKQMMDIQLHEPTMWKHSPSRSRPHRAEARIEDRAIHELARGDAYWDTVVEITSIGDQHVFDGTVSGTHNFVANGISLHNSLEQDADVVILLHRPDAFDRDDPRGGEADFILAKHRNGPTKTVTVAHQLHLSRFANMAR

Protein RecA = biological target: T3, Protein RecA (Mycobacterium tuberculosis, UniProt P9WHJ3); experiment: Fluorescence Cell-Free Homogeneous Dose Retest to Identify Inhibitors of RecA-Intein Splicing Activity. [Related pubchem assays (depositor defined):AID2097, AID2223, AID489010, AID492950]; type: functional
T3 sequence (P9WHJ3 whole entry): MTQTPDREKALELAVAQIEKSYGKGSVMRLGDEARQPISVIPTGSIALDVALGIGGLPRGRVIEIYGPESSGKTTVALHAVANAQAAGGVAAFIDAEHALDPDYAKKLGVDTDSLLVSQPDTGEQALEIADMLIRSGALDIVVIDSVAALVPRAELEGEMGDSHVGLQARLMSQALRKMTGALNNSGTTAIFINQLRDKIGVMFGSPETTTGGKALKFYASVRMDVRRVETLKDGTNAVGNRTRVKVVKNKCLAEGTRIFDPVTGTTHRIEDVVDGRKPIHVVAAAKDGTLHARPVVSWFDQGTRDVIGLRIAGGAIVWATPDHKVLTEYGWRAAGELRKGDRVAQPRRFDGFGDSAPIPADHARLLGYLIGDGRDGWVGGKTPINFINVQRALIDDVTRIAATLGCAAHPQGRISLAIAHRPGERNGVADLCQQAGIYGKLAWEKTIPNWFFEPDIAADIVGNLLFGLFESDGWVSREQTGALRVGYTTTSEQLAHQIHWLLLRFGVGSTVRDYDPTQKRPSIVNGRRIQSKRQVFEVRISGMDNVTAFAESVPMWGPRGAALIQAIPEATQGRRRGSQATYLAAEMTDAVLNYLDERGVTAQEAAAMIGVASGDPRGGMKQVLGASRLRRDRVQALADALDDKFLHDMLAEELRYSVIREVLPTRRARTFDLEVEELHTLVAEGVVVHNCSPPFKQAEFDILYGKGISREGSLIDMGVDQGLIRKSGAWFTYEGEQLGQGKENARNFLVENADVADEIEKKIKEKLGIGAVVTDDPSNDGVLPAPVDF

[7] = biological target: T4, Carboxy-terminal domain RNA polymerase II polypeptide A small phosphatase 1 (Homo sapiens, UniProt Q9GZU7); experiment: CTDSP1 inhibitors, concentration-response, biochemical, absorbance readout, ultra-high-throughput screen actives (AID 540297); type: functional
T4 sequence (Q9GZU7 whole entry): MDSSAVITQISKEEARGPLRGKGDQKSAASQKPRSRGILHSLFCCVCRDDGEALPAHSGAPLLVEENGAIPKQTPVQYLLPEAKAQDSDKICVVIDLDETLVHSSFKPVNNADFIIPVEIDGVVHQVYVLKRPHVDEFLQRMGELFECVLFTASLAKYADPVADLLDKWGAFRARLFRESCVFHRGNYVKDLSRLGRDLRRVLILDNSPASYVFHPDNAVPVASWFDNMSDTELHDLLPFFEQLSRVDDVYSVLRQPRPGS

[8] = biological target: T5, Orexin/Hypocretin receptor type 1 (Homo sapiens, UniProt O43613); experiment: Homogeneous Time Resolved Fluorescence (HTRF)-based cell-based high throughput dose response assay for antagonists of the orexin 1 receptor (OX1R; HCRTR1). [Related pubchem assays (depositor defined):AID434989, AID435008, AID463079, AID485270, AID492963, AID492964, AID492965, AID493232, AID504717, AID504718]; type: functional
T5 sequence (O43613 whole entry): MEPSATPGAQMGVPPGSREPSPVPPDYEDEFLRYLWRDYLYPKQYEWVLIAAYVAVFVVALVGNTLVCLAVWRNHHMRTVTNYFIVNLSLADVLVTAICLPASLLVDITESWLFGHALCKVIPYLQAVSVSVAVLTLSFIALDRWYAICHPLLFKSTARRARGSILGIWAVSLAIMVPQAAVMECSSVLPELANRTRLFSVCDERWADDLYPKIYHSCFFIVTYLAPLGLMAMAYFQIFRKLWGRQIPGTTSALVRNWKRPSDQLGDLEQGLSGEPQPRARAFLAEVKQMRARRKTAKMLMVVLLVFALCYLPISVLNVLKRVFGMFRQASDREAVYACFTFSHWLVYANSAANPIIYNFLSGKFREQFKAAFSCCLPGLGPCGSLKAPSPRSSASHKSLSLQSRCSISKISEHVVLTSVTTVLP

[9] = biological target: T6, Heat shock factor protein 1 (Mus musculus, UniProt P38532); experiment: decrease of HSF1-responsive luciferase luminescence – cell-based, NIH3T3, dose retest, confirmation (AID 2382); type: functional;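 further: NIH3T3 fibroblasts with HSF1-driven luciferase reporter stressed by proteasome inhibitor MG132; luminescence from HSF1-driven luciferase expression after 8 hours of MG132 stress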
T6 sequence (P38532 whole entry): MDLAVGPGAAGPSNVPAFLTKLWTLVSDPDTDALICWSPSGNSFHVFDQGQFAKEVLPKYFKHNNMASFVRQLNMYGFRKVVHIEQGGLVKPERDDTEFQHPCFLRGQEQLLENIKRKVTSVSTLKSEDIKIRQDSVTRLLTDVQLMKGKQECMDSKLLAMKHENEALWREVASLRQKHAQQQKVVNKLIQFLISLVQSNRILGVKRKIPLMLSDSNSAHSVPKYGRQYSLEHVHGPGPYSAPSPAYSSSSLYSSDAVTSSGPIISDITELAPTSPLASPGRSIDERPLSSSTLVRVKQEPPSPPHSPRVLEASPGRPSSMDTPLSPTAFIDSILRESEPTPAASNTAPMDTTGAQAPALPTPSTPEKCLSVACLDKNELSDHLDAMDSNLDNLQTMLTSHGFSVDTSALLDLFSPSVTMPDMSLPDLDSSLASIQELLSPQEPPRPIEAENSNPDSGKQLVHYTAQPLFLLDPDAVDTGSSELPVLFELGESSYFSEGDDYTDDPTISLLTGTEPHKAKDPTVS

[10] = (§1) Counterscreen for antagonists of the orexin 1 receptor (OX1R; HCRTR1): Fluorescence-based cell-based high throughput dose response assay to identify antagonists of the parental CHO cell line. [Related pubchem assays (depositor defined):AID434989, AID435008, AID463079, AID485270, AID492963, AID492964, AID492965, AID493232, AID504699, AID504701]; type: functional
CHO-K1 = experiment: as §1, with “Homogeneous time resolved fluorescence (HTRF)-based” for “Fluorescence-based”, “cell-based” for “cell-based high throughput”, “CHO-K1” for “CHO”; type: functional; conditions: Cricetulus griseus;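 further: potency for inhibition of ATP-stimulated IP1 production as antagonists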
[11] = biological target: T5, Orexin/Hypocretin receptor type 1; experiment: Fluorescence-based cell-based high throughput dose response assay for antagonists of the orexin 1 receptor (OX1R; HCRTR1). [Related pubchem assays (depositor defined):AID434989, AID435008, AID463079, AID485270, AID492963, AID492964, AID492965, AID493232, AID504717, AID504718]; type: functional
Hexokinase = biological target: T7, Hexokinase (Trypanosoma brucei, UniProt Q38C41); experiment: Confirmation assay for inhibitors of Trypanosoma brucei hexokinase 1-Analogue-first series. [Related pubchem assays (depositor defined):AID1430, AID1632, AID2516, AID2560, AID2579, AID2600, AID449725, AID492951]; type: functional
T7 sequence (Q38C41 whole entry): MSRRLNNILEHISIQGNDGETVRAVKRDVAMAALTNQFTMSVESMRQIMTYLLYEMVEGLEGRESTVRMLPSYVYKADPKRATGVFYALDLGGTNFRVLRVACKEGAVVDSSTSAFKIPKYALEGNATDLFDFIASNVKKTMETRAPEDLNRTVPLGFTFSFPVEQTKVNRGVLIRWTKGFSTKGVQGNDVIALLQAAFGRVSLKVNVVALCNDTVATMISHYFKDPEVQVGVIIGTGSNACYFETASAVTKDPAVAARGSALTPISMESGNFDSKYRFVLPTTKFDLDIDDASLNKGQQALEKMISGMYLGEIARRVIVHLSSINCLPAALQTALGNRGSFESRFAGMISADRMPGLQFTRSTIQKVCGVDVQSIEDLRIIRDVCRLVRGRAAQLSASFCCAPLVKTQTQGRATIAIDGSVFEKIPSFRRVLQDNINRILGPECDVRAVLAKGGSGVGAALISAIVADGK

Sequence of Eukaryotic translation initiation factor 4E (P63073 whole entry): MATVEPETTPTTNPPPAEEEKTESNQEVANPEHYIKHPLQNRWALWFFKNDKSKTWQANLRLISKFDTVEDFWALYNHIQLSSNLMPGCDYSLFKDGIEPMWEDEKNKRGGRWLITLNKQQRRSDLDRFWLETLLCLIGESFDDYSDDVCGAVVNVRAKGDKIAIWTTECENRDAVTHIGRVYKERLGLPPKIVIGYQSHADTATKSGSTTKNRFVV
Sequence of Peroxisome proliferator-activated receptor gamma/Nuclear receptor corepressor 2 (P37231 whole entry): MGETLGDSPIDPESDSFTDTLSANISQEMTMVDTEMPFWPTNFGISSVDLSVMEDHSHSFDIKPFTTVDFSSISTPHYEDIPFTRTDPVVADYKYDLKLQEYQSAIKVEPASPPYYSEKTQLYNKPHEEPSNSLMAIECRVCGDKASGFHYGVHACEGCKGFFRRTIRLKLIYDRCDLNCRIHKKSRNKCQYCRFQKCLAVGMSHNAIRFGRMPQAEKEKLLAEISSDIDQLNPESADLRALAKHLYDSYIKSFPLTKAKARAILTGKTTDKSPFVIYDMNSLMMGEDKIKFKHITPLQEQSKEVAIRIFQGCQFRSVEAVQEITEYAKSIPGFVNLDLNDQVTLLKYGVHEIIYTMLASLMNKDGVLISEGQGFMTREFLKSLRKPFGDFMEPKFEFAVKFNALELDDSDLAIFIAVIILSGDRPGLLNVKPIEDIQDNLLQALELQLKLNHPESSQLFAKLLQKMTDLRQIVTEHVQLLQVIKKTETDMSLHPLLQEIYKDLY
Sequence of Peroxisome proliferator-activated receptor gamma/Nuclear receptor corepressor 2 (Q9Y618 whole entry): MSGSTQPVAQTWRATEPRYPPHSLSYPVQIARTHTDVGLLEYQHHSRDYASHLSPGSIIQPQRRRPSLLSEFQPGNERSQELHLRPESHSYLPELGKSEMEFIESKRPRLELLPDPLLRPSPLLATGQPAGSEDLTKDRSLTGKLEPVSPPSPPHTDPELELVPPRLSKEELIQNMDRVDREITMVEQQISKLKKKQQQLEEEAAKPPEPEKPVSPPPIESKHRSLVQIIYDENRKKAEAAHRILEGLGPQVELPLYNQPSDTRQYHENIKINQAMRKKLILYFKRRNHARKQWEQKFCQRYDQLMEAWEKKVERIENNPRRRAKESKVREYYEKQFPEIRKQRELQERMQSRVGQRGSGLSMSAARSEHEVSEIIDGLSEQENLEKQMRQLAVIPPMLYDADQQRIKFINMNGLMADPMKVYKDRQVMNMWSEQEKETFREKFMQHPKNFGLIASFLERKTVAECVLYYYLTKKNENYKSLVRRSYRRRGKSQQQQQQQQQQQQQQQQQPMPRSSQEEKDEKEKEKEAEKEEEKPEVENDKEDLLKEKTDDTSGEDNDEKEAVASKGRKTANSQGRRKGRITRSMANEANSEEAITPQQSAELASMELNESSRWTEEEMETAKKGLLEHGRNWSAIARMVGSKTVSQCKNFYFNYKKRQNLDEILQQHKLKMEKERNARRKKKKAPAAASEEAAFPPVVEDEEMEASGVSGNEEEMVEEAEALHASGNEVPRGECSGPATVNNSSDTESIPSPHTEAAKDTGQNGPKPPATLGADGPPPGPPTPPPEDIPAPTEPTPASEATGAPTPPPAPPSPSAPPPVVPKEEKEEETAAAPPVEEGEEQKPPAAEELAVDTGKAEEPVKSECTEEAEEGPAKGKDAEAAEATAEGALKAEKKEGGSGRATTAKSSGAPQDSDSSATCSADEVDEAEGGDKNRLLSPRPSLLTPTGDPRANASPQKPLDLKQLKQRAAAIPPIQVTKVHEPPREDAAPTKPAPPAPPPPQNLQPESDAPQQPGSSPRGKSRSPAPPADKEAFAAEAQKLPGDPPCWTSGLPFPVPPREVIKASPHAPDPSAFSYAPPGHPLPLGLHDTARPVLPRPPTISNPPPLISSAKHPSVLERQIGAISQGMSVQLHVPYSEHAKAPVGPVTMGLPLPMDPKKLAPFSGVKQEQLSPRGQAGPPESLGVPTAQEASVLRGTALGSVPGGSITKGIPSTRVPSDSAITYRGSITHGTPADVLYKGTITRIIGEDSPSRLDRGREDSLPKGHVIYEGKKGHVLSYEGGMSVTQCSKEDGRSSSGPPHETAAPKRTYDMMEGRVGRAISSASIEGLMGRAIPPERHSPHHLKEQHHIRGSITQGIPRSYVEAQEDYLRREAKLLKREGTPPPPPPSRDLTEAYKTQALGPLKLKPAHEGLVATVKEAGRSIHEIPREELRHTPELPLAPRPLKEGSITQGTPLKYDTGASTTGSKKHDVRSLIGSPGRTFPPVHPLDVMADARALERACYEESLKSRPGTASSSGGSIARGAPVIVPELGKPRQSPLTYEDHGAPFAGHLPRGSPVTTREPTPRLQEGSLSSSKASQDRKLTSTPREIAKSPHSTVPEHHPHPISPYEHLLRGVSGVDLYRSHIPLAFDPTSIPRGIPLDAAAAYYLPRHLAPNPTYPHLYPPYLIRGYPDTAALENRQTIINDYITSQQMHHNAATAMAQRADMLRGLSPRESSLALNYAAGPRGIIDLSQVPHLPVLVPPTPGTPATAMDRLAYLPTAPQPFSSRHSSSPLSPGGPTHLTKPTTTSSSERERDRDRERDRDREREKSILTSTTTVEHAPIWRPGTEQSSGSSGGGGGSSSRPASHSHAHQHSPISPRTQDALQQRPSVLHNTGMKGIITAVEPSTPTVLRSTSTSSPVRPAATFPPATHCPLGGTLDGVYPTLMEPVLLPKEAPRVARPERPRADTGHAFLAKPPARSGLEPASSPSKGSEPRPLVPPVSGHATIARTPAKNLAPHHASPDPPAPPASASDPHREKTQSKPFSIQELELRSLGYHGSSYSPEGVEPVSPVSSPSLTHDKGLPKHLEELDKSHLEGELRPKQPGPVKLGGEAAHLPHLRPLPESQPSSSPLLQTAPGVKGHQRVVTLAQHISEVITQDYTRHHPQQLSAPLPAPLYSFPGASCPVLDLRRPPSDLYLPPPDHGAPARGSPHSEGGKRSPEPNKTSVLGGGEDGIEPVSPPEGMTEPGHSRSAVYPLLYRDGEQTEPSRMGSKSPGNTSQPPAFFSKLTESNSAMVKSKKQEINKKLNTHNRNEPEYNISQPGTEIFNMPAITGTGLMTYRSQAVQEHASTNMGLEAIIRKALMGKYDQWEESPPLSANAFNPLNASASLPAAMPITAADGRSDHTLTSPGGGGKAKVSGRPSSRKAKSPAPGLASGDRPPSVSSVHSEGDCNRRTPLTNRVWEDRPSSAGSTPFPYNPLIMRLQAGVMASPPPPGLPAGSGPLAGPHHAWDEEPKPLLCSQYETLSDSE
Sequence of Ephrin type-A receptor 4 (Q03137 whole entry): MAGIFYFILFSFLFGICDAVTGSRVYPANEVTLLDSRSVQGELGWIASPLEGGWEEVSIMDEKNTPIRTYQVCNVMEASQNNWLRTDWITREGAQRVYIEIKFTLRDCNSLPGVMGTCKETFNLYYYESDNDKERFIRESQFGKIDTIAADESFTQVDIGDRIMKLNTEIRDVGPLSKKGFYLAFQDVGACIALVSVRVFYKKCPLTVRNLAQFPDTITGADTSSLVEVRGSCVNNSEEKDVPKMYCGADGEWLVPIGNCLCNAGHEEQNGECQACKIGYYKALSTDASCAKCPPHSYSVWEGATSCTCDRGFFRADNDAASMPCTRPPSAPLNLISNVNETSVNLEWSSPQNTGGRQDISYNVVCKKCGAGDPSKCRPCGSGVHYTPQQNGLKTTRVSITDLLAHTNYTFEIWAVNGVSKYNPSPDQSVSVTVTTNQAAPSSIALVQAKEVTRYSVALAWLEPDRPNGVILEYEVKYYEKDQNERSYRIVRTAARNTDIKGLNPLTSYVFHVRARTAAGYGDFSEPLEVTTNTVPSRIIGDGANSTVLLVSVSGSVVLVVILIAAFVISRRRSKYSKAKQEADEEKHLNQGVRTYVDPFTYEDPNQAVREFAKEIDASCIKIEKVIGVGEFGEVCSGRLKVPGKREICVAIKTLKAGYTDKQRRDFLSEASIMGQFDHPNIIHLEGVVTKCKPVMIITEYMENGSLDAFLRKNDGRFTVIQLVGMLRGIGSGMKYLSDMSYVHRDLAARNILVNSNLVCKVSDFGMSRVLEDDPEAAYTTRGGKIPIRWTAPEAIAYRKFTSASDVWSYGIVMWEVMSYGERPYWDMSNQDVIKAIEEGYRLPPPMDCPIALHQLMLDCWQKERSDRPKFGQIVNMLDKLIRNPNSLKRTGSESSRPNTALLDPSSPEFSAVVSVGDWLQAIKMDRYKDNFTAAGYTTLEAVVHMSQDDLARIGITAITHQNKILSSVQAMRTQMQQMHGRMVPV
Sequence of Photoreceptor-specific nuclear receptor (Q9Y5X4 whole entry): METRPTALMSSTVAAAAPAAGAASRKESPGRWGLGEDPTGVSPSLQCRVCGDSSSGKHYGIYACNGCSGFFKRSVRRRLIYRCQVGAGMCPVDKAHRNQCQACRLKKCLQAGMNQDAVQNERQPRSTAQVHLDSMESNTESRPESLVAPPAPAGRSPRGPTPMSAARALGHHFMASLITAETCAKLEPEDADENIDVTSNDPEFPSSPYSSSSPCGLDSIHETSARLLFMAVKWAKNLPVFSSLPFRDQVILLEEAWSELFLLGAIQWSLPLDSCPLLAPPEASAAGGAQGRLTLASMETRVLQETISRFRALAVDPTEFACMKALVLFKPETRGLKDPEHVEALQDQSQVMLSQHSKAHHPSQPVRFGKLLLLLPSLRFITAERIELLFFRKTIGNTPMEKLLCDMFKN

Structure (SMILES): CCOC(=O)CCCn1ncn2c(cc3occc32)c1=O
- AC50 [1]: 12 µM (active)

Structure (SMILES): COC(=O)Sc1nnc(-c2ccc(Br)cc2)o1
- IC50 (Ephrin type-A receptor 4): 13 µM (active)
- IC50 [2]: > 39.8 µM (not active)
- IC50 [3]: 30.7 µM (active)
- IC50 [4]: 3.53 µM (active)

Structure (SMILES): COc1cc(-c2[nH]nc3c2C(c2ccco2)C(C#N)=C(N)O3)cc(OC)c1OC (stereo not given)
- IC50 [5]: > 80 µM (inactive)
- AC50 [6]: 6.62 µM (active)
- EC50 (Protein RecA): 0.531 µM (active)

Structure (SMILES): Cc1ccc(-n2nc(-c3ccco3)cc2C(=O)O)c(C)c1
- IC50 [7]: 4.94 µM (active)
- IC50 [3]: 50 µM (inactive)

Structure (SMILES): O=S(=O)(Nc1c(O)ccc2ccccc12)c1cccc2ccccc12
- IC50 [8]: 2.85 µM (active)
- EC50 [9]: 15.7 µM (active)
- AC50 [6]: 4.4 µM (active)
- EC50 (Protein RecA): 1.77 µM (active)
- IC50 [10]: 39.2 µM (inactive)
- IC50 (CHO-K1): 56.9 µM (inactive)
- IC50 [11]: 13.1 µM (inactive)

Structure (SMILES): CC(C)(C)c1ccc(C(=O)Nc2c(C(=O)O)ccc(Cl)c2Cl)cc1
- IC50 (Hexokinase): > 25 µM (inactive)

Structure (SMILES): CC(C)Cc1ccc(C(=O)Nc2cc(Cl)ccc2C(=O)O)cc1
- IC50 (Hexokinase): 7.25 µM (active)

Structure (SMILES): O=C(Nc1cc(Cl)ccc1C(=O)O)c1ccoc1
- IC50 (Hexokinase): > 25 µM (inactive)

Structure (SMILES): O=C1NCC(c2ccccc2)C1C(=O)N/N=C\c1ccc(-c2cccc(Cl)c2Cl)o1 (stereo not given)
- IC50 [8]: 0.648 µM (active)
- IC50 [10]: 24.7 µM (inactive)
- IC50 (CHO-K1): > 66.2 µM (inactive)
- IC50 [11]: 2.32 µM (active)

Structure (SMILES): COc1ccccc1/C=C1\SC(=S)N(CCC(=O)Nc2cccc(O)c2)C1=O
- IC50 [5]: 60.6 µM (inactive)
